According to the NIST ThermoML archive (doi:10.1021/je060271a):

Details: 323.16 K, Liquid, Vibrating tube method

CCCCCC(=O)OCC(COC(=O)CCCCC)(COC(=O)CCCCC)COC(=O)CCCCC [pentaerythritol tetrahexanoate]
Details	mass density [kg/m3]
24638 kPa	989
24665 kPa	988.9
24693 kPa	988.9
24716 kPa	988.9
24744 kPa	989
24772 kPa	989
24795 kPa	988.9
24822 kPa	989
24849 kPa	989
24876 kPa	989.1
24905 kPa	989
24928 kPa	989.2
24956 kPa	989.1
24984 kPa	989.2
25012 kPa	989.1
25040 kPa	989.2
25063 kPa	989.1
25092 kPa	989.2
25120 kPa	989.4
25148 kPa	989.3
25172 kPa	989.1
25200 kPa	989.2
25228 kPa	989.4
25257 kPa	989.3
25286 kPa	989.2
25314 kPa	989.3
25339 kPa	989.4
25368 kPa	989.4
25397 kPa	989.3
25422 kPa	989.4
25450 kPa	989.4
25480 kPa	989.3
25509 kPa	989.4
26056 kPa	989.7
26083 kPa	989.7
26111 kPa	989.8
26138 kPa	989.8
26161 kPa	989.8
26189 kPa	989.8
26217 kPa	989.8
26244 kPa	989.9
26266 kPa	989.9
26294 kPa	989.9
26321 kPa	989.9
26349 kPa	989.9
26377 kPa	989.9
26405 kPa	990
26428 kPa	990
26456 kPa	990
26485 kPa	990
26516 kPa	990
26539 kPa	990.1
26567 kPa	990.1
26596 kPa	990.2
26620 kPa	990.1
26648 kPa	990.1
26677 kPa	990.1
26706 kPa	990.2
26734 kPa	990.2
27187 kPa	990.3
27218 kPa	990.5
27243 kPa	990.5
27273 kPa	990.4
27304 kPa	990.6
27334 kPa	990.6
27359 kPa	990.6
27390 kPa	990.6
27420 kPa	990.5
27451 kPa	990.6
27481 kPa	990.7
27507 kPa	990.6
27538 kPa	990.7
27569 kPa	990.7
27601 kPa	990.7
27627 kPa	990.7
27659 kPa	990.8
27690 kPa	990.8
27722 kPa	990.8
27748 kPa	990.8
27781 kPa	990.7
27814 kPa	990.9
27846 kPa	990.8
27871 kPa	990.8
27898 kPa	991
27926 kPa	990.9
27954 kPa	990.9
27978 kPa	991
28006 kPa	990.8
28034 kPa	990.9
28308 kPa	991.1
28332 kPa	991.2
28361 kPa	991.2
28389 kPa	991.2
28418 kPa	991.2
28471 kPa	991.3
28499 kPa	991.1
28529 kPa	991.2
28553 kPa	991.1
28582 kPa	991.2
28611 kPa	991.3
28640 kPa	991.4
29189 kPa	991.7
29221 kPa	991.7
29253 kPa	991.7
29279 kPa	991.7
29311 kPa	991.8
29343 kPa	991.8
29373 kPa	991.8
29395 kPa	991.8
29423 kPa	991.8
29446 kPa	991.7
29473 kPa	991.8
29500 kPa	991.8
29527 kPa	991.9
29603 kPa	991.9
29630 kPa	991.8
29657 kPa	992.1
29680 kPa	992
29707 kPa	992
29734 kPa	992
29999 kPa	992.1
30027 kPa	992.1
30055 kPa	992.3
30079 kPa	992.1
30107 kPa	992.1
30135 kPa	992.2
30159 kPa	992.4
30188 kPa	992.3
30217 kPa	992.3
30245 kPa	992.2
30273 kPa	992.4
30301 kPa	992.4
30326 kPa	992.2
30354 kPa	992.4
30383 kPa	992.3
30407 kPa	992.4
30436 kPa	992.4
30579 kPa	992.4
30610 kPa	992.4
30641 kPa	992.5
30672 kPa	992.6
30697 kPa	992.5
30725 kPa	992.6
30749 kPa	992.7
30774 kPa	992.6
